Assay results: patent US11413255B2, “Multifunctional cytoprotectant for treatment of pathogenic processes mediated by oxidative stress and toxic electrophiles” (Montefiore Medical Center, priority 2015, dated 2022)
Entries after “also recorded” stand apart in the source; their conditions may differ. Read-outs that look alike come from different tables or passages of the source.

How the values were obtained:
[1] = test system: raloxifene-exposed hepatocytes; test: Raloxifene-induced hepatocyte toxicity; conditions: for protection against raloxifene: at 150 μM
[2] = test system: APAP-exposed isolated mouse liver cells (hepatocytes); test: Viability of APAP-exposed isolated mouse hepatocytes, graded protectant concentrations; type: cell-based; conditions: read-out: EC50 (cytoprotection)
[3] = test system: raloxifene-exposed hepatocytes
[4] = test system: mice
[5] = test system: APAP-intoxicated mice; conditions: for hepatoprotection in APAP-intoxicated mice, i. p. administration: i. p. 20 mins prior to APAP, THA 0.20-0.80, PG 0.40-2.40, 4-NAHA 0.04-0.08 mmol/kg; for hepatoprotection in APAP-intoxicated mice, oral administration: THA and PG 0.80-2.40, 4-NAHA 0.04-0.12, NAC 1.60-2.40 mmol/kg
Description: Survival curves, THA and PG i. p. administration.
Survival curves, THA and PG oral administration.
Survival curves, 4-NAHA i. p. and oral administration.

[6] = test system: cell culture models of oxidative stress and electrophile (acrolein) toxicity; conditions: cited from earlier work
[7] = pKa and % anion at physiological pH; conditions: for % in the carbanion / ionized nucleophilic state: physiological / cellular pH
[8] = test system: APAP-exposed hepatocytes; test: Hepatocyte rescue: protectant added 2 hrs after APAP; type: cell-based, mouse
[9] = test system: mice; conditions: cited from earlier work
[10] = In chemico prevention of thiol (GSH) depletion by acrolein; type: biochemical; conditions: FIG. 2B
[11] = physchem
[12] = test system: isolated hepatocytes exposed to graded APAP; test: Isolated hepatocytes, fixed protectant and graded APAP concentrations; type: cell-based, mouse
Description: FIG. 8A-8B. […] Data are expressed as mean percent of control±SEM and *indicates p<0.05.

[13] = In chemico prevention of thiol (GSH) depletion by NAPQI; type: biochemical; conditions: FIG. 2A
[14] = test system: carbon tetrachloride-induced hepatotoxicity in mice; conditions: 0.032 mmol/kg p. o.; carbon tetrachloride 0.5 ml/kg i. p.; cited from earlier work
[15] = Computational data on THA analogues: pKa and % anion; type: physicochemical
Description: Computational Data on THA Analogues:

[16] = 0.25 mM protectant, APAP 1.0 mM
[17] = 0.25 mM protectant, APAP 0.25-5.0 mM×4 hrs
[18] = 0.25 mM protectant, highest APAP concentration 5.0 mM
[19] = 1.0 mM protectant, APAP 0.25-5.0 mM×4 hrs

Row | SMILES | protection against raloxifene [1] | hepatoprotection in APAP-intoxicated mice, oral administration [5] | % Anion (pH 7.4) [7] [%] | effect on viability, protectant added 2 hrs post-APAP [8, 16] | effect on viability, protectant added 2 hrs post-APAP ([8]; 1.0 mM protectant) | EC50 ([2]; Mus musculus, Hepatocyte, 4 h) [µM] | cytoprotection (viability) [12, 17] | toxicity measures (ALT appearance, mitochondrial membrane potential) ([12]; 1.0 mM protectant) | cytoprotection (viability) [12, 19] | also measured
1 | O=C(c1ccc(OCCN2CCCCC2)cc1)c1c(-c2ccc(O)cc2)sc2cc(O)ccc12 [raloxifene, reference compound] | – | – | – | – | – | – | – | – | – | concentration producing hepatocyte toxicity ([1]; raloxifene exposure): 75 µM
2 | CC(=O)c1cc(O)c(C(C)=O)c(O)c1 [4-NAHA, 4-acetyl-2,6-dihydroxy acetophenone] | fully protective | effective over a broader dose-range | – | – | – | – | – | – | – | EC50 ([2]; APAP 1.0 mM, 4 hrs, protectant 0.010-5.0 mM): 6 µM; relative ability to prevent raloxifene-induced hepatocyte toxicity [3]: superior protection; delayed toxicity ([4]; all doses tested, 7 days): did not cause delayed toxicity; acute toxicity ([4]; doses 0.04-0.12 mmol/kg): not acutely toxic; hepatoprotection ([5]; i. p. 0.04 mmol/kg): ineffective; hepatoprotection ([5]; i. p. 0.08 mmol/kg): significant hepatoprotection; hepatoprotection in APAP-intoxicated mice, i. p. administration [5]: dose-dependent protection; hepatoprotection ([5]; oral 0.04 mmol/kg): ineffective; hepatoprotection ([5]; oral 0.12 mmol/kg, lethality significantly delayed): partially protective
3 | O=C(CCc1ccc(O)cc1)c1c(O)cc(O)cc1O [Phloretin, phloretin] | – | – | 55.0 | – | – | – | – | – | – | lethality when administered alone ([4]; 0.40-2.40 mmol/kg, administered alone): associated with lethality; effect of higher concentrations ([6]; above the protective range): cytotoxic; concentrations giving significant cytoprotection ([6]; several cell culture models): 100 to 250 µM; hepatoprotection ([5]; i. p. 0.200 mmol/kg, APAP 500 mg/kg p. o.): marginal hepatoprotection
4 | CC(=O)c1c(O)cc(O)cc1O [THA, 2′,4′,6′-trihydroxyacetophenone] | fully protective | dose-dependent hepatoprotection; also recorded: dose-dependent protection | 33.0 | partial recovery of viability | complete restoration of viability | ~90 | fully protective up to the 1.0 mM APAP concentration | normal | full hepatocyte protection irrespective of APAP concentration | oral LD50 mice [9]: 3.20 gm/kg; prevention of acrolein-induced thiol (GSH) depletion [10]: better thiol protection than PG; lethality associated with the i. p. doses ([4]; i. p. doses of FIG. 3): No lethality; pKa [11]: 7.75; pKa [7]: 7.7; % in the carbanion / ionized nucleophilic state [7]: approximately 33%; relative ability to prevent raloxifene-induced hepatocyte toxicity ([1]; FIG. 10 legend): superior protection; cytoprotection (viability) [12, 18]: preserved cell viability; prevention of NAPQI-induced thiol (GSH) depletion [13]: better thiol protection than PG; also recorded: better protection against NAPQI-induced GSH loss; prevention of carbon tetrachloride-induced hepatotoxicity [14]: completely prevent; hepatoprotection in APAP-intoxicated mice, i. p. administration [5]: dose-dependent (0.20-0.80 mmol/kg) hepatoprotection
5 | Oc1cc(O)cc(O)c1 [drawing 24] | – | – | – | – | – | – | – | – | – | % Anion (pH = 7.4) [15]: 07%; pKa ([15]; values without * (not estimates)): 8.5
6 | Oc1cc(O)cc(O)c1 [PG, 1,3,5-trihydroxybenzene] | – | – | 7.40 | arrested the progression of APAP-induced toxicity | complete restoration of viability | ~90 | fully protective up to the 1.0 mM APAP concentration | – | full hepatocyte protection irrespective of APAP concentration | pKa [11]: 8.45; % in the carbanion / ionized nucleophilic state [7]: 7%; cytoprotection (viability) [12, 18]: only partial cytoprotection
7 | O=C(CCc1ccc(O)cc1)c1c(O)cc(O)cc1O [drawing 21] | – | – | – | – | – | – | – | – | – | % Anion (pH = 7.4) [15]: 56%
8 | CC(=O)N[C@@H](CS)C(=O)O [NAC, N-acetyl cysteine] | partial protection | effective APAP antidote only when administered orally | 0.80 | ineffective | truncated the rapid decline in viability | ~1000 | neither 2-ACP nor NAC provided cytoprotection beyond the lowest APAP concentration | return toward normalization of the toxicity indices | partial cytoprotection | effect on viability, protectant added 2 hrs post-APAP ([8]; 5 mM protectant, APAP 1.0 mM): promoted recovery of APAP-exposed hepatocytes
9 | CC(=O)C1CCCC1=O (stereo not drawn) [2-ACP, 2-acetylcyclopentanone] | partial protection | – | 28.0 | ineffective | truncated the rapid decline in viability | ~1000 | neither 2-ACP nor NAC provided cytoprotection beyond the lowest APAP concentration | return toward normalization of the toxicity indices | partial cytoprotection | effect on viability, protectant added 2 hrs post-APAP ([8]; 5 mM protectant, APAP 1.0 mM): promoted recovery of APAP-exposed hepatocytes; prevention of acrolein-induced thiol (GSH) depletion [10]: better GSH protection from acrolein than THA or PG
